Reference: ChEMBL document CHEMBL2406968, “Heteroaryl sodium channel inhibitors” (ACS Med Chem Lett, 2013)

Key:
[1] = molecular target: Sodium channel protein type 9 subunit alpha (Homo sapiens) (UniProt Q15858); experiment: Inhibition of Nav1.7 (unknown origin) expressed in HEK293 cells by automated patch clamp assay; format: cell-based
[2] = molecular target: Sodium channel protein type 11 subunit alpha (Homo sapiens) (UniProt Q9UI33); experiment: Inhibition of Nav1.9 (unknown origin) expressed in HEK293 cells by automated patch clamp assay; format: cell-based
Sequence of Sodium channel protein type 11 subunit alpha (Homo sapiens) (Q9UI33 whole entry): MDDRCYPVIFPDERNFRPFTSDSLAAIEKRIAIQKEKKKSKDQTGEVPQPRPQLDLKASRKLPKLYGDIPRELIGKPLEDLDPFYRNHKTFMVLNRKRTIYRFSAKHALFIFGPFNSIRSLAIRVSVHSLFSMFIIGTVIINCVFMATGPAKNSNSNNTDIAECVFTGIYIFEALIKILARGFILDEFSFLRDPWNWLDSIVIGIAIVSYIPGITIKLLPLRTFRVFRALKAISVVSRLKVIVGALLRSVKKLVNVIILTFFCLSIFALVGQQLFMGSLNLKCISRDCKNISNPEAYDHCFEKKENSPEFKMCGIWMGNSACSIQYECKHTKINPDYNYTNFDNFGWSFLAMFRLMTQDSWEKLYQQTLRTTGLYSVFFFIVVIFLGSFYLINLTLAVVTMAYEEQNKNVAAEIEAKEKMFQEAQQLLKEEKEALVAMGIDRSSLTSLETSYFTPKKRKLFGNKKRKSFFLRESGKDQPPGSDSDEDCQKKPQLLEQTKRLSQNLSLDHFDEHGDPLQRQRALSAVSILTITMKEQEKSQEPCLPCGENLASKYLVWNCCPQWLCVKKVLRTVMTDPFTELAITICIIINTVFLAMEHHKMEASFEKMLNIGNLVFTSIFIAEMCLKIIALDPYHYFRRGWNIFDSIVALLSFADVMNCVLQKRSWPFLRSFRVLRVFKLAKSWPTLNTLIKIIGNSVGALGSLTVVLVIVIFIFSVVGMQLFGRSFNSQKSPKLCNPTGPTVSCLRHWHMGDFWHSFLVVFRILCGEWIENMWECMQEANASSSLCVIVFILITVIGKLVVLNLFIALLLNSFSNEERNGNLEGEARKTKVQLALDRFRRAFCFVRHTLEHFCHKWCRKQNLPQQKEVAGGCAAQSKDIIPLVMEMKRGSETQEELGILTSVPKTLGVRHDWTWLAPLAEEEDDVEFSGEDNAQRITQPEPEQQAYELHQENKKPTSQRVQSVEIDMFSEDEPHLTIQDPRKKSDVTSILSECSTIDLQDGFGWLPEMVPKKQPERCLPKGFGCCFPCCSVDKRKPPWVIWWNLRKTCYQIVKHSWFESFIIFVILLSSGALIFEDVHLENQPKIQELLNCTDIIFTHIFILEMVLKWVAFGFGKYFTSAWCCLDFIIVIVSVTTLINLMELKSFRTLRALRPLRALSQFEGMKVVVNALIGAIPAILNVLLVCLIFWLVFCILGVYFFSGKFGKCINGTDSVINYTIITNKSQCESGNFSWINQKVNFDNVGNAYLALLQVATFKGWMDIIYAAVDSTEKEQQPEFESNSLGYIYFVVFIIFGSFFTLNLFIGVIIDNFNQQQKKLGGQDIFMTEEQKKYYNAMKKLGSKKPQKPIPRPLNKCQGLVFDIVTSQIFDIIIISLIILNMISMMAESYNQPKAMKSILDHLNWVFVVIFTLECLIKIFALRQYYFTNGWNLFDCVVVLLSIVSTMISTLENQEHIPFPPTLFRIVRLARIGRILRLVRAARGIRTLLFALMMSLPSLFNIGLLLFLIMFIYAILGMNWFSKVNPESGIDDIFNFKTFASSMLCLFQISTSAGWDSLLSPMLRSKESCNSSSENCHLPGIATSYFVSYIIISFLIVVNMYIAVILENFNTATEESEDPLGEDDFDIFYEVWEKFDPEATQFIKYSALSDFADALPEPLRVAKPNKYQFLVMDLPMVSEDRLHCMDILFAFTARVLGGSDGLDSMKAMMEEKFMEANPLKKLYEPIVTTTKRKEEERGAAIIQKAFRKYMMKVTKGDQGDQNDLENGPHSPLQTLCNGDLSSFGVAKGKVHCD

Sequence of Sodium channel protein type 9 subunit alpha (Homo sapiens) (Q15858 whole entry, looked up): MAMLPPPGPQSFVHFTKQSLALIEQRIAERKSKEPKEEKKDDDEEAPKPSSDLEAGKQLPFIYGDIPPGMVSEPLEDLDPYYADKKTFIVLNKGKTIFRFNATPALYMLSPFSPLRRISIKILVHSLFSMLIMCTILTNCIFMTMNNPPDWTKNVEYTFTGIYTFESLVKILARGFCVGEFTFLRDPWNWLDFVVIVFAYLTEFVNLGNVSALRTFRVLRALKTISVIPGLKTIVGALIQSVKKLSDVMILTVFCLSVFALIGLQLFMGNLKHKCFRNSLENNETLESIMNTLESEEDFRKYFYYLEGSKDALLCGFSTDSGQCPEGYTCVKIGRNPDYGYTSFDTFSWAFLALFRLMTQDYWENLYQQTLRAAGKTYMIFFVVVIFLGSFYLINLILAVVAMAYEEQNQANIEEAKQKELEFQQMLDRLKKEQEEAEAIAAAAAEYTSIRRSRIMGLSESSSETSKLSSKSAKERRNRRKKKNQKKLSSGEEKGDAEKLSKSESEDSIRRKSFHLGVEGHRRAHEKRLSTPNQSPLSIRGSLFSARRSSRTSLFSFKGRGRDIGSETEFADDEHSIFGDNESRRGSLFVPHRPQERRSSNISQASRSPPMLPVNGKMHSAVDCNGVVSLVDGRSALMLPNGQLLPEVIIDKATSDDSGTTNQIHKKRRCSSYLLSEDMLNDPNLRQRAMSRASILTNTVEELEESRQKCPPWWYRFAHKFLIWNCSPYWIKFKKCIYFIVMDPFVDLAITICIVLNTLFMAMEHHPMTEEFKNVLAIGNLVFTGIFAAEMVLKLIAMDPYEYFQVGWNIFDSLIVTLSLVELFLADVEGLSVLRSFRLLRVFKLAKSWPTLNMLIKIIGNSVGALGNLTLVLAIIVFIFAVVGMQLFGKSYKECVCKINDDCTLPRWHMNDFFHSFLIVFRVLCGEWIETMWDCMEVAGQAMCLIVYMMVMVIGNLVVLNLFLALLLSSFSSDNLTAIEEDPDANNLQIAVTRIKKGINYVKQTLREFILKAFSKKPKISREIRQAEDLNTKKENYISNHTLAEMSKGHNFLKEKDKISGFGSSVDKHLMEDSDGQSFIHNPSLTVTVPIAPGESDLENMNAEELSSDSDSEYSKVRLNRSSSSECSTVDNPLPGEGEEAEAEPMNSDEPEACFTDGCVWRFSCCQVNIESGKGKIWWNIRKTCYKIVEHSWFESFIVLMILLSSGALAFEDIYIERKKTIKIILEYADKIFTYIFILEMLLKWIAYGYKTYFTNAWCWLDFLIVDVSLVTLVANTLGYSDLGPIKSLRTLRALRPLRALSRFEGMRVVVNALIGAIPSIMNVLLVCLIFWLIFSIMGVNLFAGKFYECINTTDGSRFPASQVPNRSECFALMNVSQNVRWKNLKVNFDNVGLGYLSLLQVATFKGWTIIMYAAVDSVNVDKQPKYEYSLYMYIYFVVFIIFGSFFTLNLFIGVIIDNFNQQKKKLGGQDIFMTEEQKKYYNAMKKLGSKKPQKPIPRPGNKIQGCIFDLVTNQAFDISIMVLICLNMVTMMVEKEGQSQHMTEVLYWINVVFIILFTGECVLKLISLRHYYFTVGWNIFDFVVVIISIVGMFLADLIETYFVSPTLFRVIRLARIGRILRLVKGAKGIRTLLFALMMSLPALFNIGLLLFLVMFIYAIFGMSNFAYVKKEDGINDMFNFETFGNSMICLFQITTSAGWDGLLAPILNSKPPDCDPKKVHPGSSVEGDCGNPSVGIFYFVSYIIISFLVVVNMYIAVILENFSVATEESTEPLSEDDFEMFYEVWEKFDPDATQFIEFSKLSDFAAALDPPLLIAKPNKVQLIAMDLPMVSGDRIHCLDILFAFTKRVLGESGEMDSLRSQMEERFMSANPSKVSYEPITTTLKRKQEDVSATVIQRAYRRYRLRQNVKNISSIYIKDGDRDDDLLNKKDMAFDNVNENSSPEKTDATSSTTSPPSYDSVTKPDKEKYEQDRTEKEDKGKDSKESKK

Row | Structure (SMILES) | INH [1] | INH [2]
1 | Cn1nccc1-c1cc(Cl)ccc1-c1cn(C)c2cc(S(=O)(=O)Nc3ncns3)ccc12 | 0.253 µM | > 10 µM
2 | CC(=O)n1cc(-c2ccc(C(F)(F)F)cc2-c2ccnn2C)c2ccc(S(=O)(=O)Nc3ncns3)cc21 | 0.0505 µM | > 10 µM
3 | Cn1cc(-c2ccc(C(F)(F)F)cc2-c2ccn[nH]2)c2ccc(S(=O)(=O)Nc3ncns3)cc21 | 0.0375 µM | > 10 µM
4 | Cn1cc(-c2ccc(C(F)(F)F)cc2-c2ccnn2C2CNC2)c2ccc(S(=O)(=O)Nc3ncns3)cc21 | 0.263 µM | > 10 µM
5 | Cn1cc(-c2ccc(C(F)(F)F)cc2-c2ccncc2)c2ccc(S(=O)(=O)Nc3ncns3)cc21 | 0.05 µM | > 10 µM
6 | Cn1nccc1-c1cc(C(F)(F)F)ccc1-c1cn(C)c2cc(S(=O)(=O)Nc3ncns3)ccc12 | 0.147 µM | > 10 µM
7 | Cn1cc(-c2cccc3c2CCNC3)c2ccc(S(=O)(=O)Nc3ncns3)cc21 | 0.292 µM | > 10 µM
8 | Cn1cc(-c2ccc(C(F)(F)F)cc2C2=CCNCC2)c2ccc(S(=O)(=O)Nc3ncns3)cc21 | 0.0425 µM | > 10 µM
9 | Cn1cc(-c2cccc3ccccc23)c2ccc(S(=O)(=O)Nc3ncns3)cc21 | 0.306 µM | > 10 µM
